Laboratory results taken from patent US20200131144A1, “AMINE OR (THIO)AMIDE CONTAINING LXR MODULATORS” (Phenex-FXR GmbH, priority 2017, published 2020).
pEC50: −log10 of the molar value.

Experiments:
LXRβ full length (FL) = target: T1, LXRβ full length (FL) (Homo sapiens, UniProt P55055, INS174Q); experiment: LXR Gal4 reporter transient transfection assay, mammalian two-hybrid, FL-M2H Gal4β; format: cell-based; conditions: HEK293 cells; inverse agonist unless *
T1 construct: the full length (FL) proteins of LXRα (amino acids 1-447); NP005684; NP009052; expressed in transfected cells; host or cells: HEK293
T1 sequence (P55055 with tags, fused parts or gaps INS174Q): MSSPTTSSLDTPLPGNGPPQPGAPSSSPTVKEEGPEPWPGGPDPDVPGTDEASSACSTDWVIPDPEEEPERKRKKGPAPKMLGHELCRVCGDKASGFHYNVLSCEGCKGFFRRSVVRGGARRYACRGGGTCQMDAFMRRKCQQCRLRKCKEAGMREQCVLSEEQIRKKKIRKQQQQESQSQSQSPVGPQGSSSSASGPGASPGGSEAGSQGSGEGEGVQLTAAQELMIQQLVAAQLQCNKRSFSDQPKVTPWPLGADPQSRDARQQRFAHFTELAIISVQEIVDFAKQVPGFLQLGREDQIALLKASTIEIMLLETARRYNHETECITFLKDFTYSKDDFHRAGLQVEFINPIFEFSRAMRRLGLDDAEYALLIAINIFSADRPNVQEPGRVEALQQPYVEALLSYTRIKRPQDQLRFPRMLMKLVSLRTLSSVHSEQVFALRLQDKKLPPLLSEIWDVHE
Outline: (§1)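 Mammalian two-hybrid read-out: interaction of LXRα or LXRβ (full length or ligand-binding domain, NFkB activation-domain fusions) with GAL4-fused SRC1 or NCoR domains drives GAL4-responsive firefly luciferase in HEK293 cells, normalised by Renilla cotransfection. Compounds given 4 h after transfection, ≤0.2% vehicle, cells lysed after 16 h.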

[1] = target: T2, GST-LXRβ ligand-binding domain (Homo sapiens, UniProt P55055, INS174Q); experiment: TR-FRETβ activity assay (NCoA3 coactivator peptide recruitment); format: biochemical; conditions: 1 μM 24(S)-25-epoxycholesterol as prestimulating agonist; inverse agonist unless *
T2 construct: amino acids 156-461; NP009052; made in house; host or cells: E. coli
T2 sequence (P55055 with tags, fused parts or gaps INS174Q limits assumed): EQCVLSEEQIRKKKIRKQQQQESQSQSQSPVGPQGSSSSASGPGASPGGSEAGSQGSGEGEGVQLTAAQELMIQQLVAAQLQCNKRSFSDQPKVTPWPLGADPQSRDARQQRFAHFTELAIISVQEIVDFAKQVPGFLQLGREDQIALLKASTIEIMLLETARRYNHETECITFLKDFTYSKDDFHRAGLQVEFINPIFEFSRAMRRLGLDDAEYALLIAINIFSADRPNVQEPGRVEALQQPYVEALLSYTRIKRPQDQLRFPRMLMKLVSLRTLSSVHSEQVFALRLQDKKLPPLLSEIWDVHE
Outline: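 Coactivator recruitment read as TR-FRET (ex 340, em 615 and 665 nm) after 1 h equilibration at 4° C, in triplicate. Mix held 76 nM GST-tagged LXRβ LBD (aa 156-461, E. coli), 400 nM biotin-NCoA3 peptide, Tb-cryptate anti-GST, streptavidin-XL665, 240 mM KCl buffer.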

LXRα full length (FL) = target: T3, LXRα full length (FL) (Homo sapiens, UniProt Q13133); experiment: LXR Gal4 reporter transient transfection assay, mammalian two-hybrid, FL-M2H Gal4α; format: cell-based; conditions: HEK293 cells; inverse agonist unless *
T3 construct: the full length (FL) proteins of LXRα (amino acids 1-447); NP005684; expressed in transfected cells; host or cells: HEK293
T3 sequence (Q13133 1-447): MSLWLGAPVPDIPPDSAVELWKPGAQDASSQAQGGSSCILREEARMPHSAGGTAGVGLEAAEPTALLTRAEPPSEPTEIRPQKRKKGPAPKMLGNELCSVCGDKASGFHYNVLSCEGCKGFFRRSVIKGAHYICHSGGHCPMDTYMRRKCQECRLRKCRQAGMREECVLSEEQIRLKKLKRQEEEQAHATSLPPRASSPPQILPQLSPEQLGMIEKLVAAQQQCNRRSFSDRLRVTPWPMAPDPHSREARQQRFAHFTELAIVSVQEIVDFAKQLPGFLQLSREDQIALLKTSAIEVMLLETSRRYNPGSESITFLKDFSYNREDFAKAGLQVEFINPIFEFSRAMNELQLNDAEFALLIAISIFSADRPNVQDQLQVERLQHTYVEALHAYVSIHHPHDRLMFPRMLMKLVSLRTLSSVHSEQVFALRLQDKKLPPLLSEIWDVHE
Outline: as §1

Structure (SMILES) | pEC50 (LXRβ full length (FL)) | pEC50 [1] | pEC50 (LXRα full length (FL)) | FRETβ [1]
Cc1nc2ncccc2c(C(=O)N(Cc2ccc(-c3cccc(C(C)(C)C(=O)O)c3)cc2)Cc2ccc(C(F)(F)F)o2)c1C [27/92] | > 7.00 | 6.00 to 7.00 | 6.00 to 7.00 | –
Cc1c(C(=O)N(Cc2ccc(-c3cccc(C(C)(C)C(=O)O)c3)cc2)Cc2ccc(C(F)(F)F)o2)c2ccccc2n(C)c1=O [27/94] | > 7.00 | 6.00 to 7.00 | > 7.00 | –
CC1=C(C(=O)N(Cc2ccc(-c3cccc(C(C)(C)C(=O)O)c3)cc2)Cc2ccc(C(F)(F)F)o2)c2ccccc2CC1 [27/95] | > 7.00 | > 7.00 | > 7.00 | –
CC(C)(C(=O)O)c1cccc(-c2ccc(CN(Cc3ccc(C(F)(F)F)o3)C(=O)C3C(C)(C)CCC3(C)C)cc2)c1 [27/97] | > 7.00 | – | > 7.00 | C*
CCOC(=O)c1ccc(CN(Cc2ncc(-c3cccc(C(C)C(=O)O)c3)cc2Cl)C(=O)c2c(C)c(C)nc3ccccc23)o1 (stereo not drawn) [27/98] | 6.00 to 7.00 | 6.00 to 7.00 | 6.00 to 7.00 | –
CCNC(=O)c1ccc(CN(Cc2ncc(-c3cccc(C(C)C(=O)O)c3)cc2Cl)C(=O)c2c(C)c(C)nc3ccccc23)o1 (stereo not drawn) [27/99] | 5.00 to 6.00 | 5.00 to 6.00 | 5.00 to 6.00 | –
Cc1nc2ccccc2c(C(=O)N(Cc2ccc(C(=O)N(C)C)o2)Cc2ncc(-c3cccc(C(C)C(=O)O)c3)cc2Cl)c1C (stereo not drawn) [27/100] | 5.00 to 6.00 | < 5.00 | 5.00 to 6.00 | –
Cc1cnc2ccccc2c1C(=O)N(Cc1ccc(-c2cccc(C(C)(C)C(=O)O)c2)cc1)Cc1ccc(C(F)(F)F)o1 [27/103] | > 7.00 | > 7.00 | > 7.00 | –
COc1cc(-c2cccc(C(C)(C)C(=O)O)c2)ccc1CN(Cc1ccc(C(F)(F)F)o1)C(=O)c1c(C)c(C)nc2ccccc12 [27/104] | > 7.00 | 6.00 to 7.00 | > 7.00 | –
Cc1nc2ccccc2c(C(=O)N(Cc2ccc(C(F)(F)F)o2)Cc2ccc(-c3cccc(C(C)(C)C(=O)O)c3)cc2C#N)c1C [27/105] | > 7.00 | 6.00 to 7.00 | > 7.00 | –
COc1cc(-c2cccc(C(C)(C)C(=O)O)c2)ccc1CN(Cc1ccc(C(F)(F)F)o1)C(=O)c1c(C)c(C)nc2cccnc12 [27/108] | > 7.00 | 6.00 to 7.00 | > 7.00 | –
Cc1nc2cccnc2c(C(=O)N(Cc2ccc(C(F)(F)F)o2)Cc2ccc(-c3cccc(C(C)(C)C(=O)O)c3)cc2C#N)c1C [27/109] | 6.00 to 7.00 | 5.00 to 6.00 | 6.00 to 7.00 | –
Cc1nc2cccnc2c(C(=O)N(Cc2ccc(-c3cccc(C(C)C(=O)O)c3)cc2)Cc2ccc(C(F)(F)F)o2)c1C (stereo not drawn) [27/110] | > 7.00 | 6.00 to 7.00 | > 7.00 | –
Cc1cc(C(=O)N(Cc2ccc(-c3cccc(C(C)(C)C(=O)O)c3)cc2)Cc2ccc(C(F)(F)F)o2)c2ncccc2n1 [27/111] | > 7.00 | 5.00 to 6.00 | 6.00 to 7.00 | –
Cc1nc2cccnc2c(C(=O)N(Cc2ccc(-c3cccc(C4(C(=O)O)CC4)c3)cc2)Cc2ccc(C(F)(F)F)o2)c1C [27/112] | > 7.00 | 6.00 to 7.00 | > 7.00 | –
Cc1nc2cccnc2c(C(=O)N(Cc2ccc(-c3cc(F)cc(C4(C(=O)O)CC4)c3)cc2)Cc2ccc(C(F)(F)F)o2)c1C [27/113] | > 7.00 | 6.00 to 7.00 | > 7.00 | –
Cc1nc2cccnc2c(C(=O)N(Cc2ccc(C(F)(F)F)o2)Cc2ccc(-c3cccc(C(C)(C)C(=O)O)c3)cc2F)c1C [27/114] | > 7.00 | 6.00 to 7.00 | > 7.00 | –
Cc1cnc2cccnc2c1C(=O)N(Cc1ccc(C(F)(F)F)o1)Cc1ccc(-c2cccc(C(C)(C)C(=O)O)c2)cc1Cl [27/115] | > 7.00 | 6.00 to 7.00 | > 7.00 | –

Structure (SMILES) | pEC50 (LXRβ full length (FL)) | pEC50 [1] | pEC50 (LXRα full length (FL)) | FRETβ [1]
Cc1nc2cccnn2c1C(=O)N(Cc1ccc(-c2cccc(C(C)(C)C(=O)O)c2)cc1)Cc1ccc(C(F)(F)F)o1 [27/116] | 6.00 to 7.00 | 5.00 to 6.00 | 6.00 to 7.00 | –
Cc1nc2ncccn2c1C(=O)N(Cc1ccc(-c2cccc(C(C)(C)C(=O)O)c2)cc1)Cc1ccc(C(F)(F)F)o1 [27/117] | 5.00 to 6.00 | 5.00 to 6.00 | 5.00 to 6.00 | –
Cc1nc2ccccn2c1C(=O)N(Cc1ccc(-c2cccc(C(C)(C)C(=O)O)c2)cc1)Cc1ccc(C(F)(F)F)o1 [27/118] | 6.00 to 7.00 | 6.00 to 7.00 | 6.00 to 7.00 | –
Cc1nc2ccccc2c(C(=O)N(Cc2ccc(-c3cccc(C(C)(C)C(=O)O)c3)cc2)Cc2ccc(C(F)(F)F)o2)c1O [27/120] | 6.00 to 7.00 | 5.00 to 6.00 | 6.00 to 7.00 | –
Cc1ccc2ncnn2c1C(=O)N(Cc1ccc(-c2cccc(C(C)(C)C(=O)O)c2)cc1)Cc1ccc(C(F)(F)F)o1 [27/121] | > 7.00 | > 7.00 | > 7.00 | –
Cc1nn2ncccc2c1C(=O)N(Cc1ccc(-c2cccc(C(C)(C)C(=O)O)c2)cc1)Cc1ccc(C(F)(F)F)o1 [27/122] | 6.00 to 7.00 | 5.00 to 6.00 | 6.00 to 7.00 | –
Cc1cc(C(=O)N(Cc2ccc(C(F)(F)F)o2)Cc2ccc(-c3cccc(C(C)(C)C(=O)O)c3)cc2Cl)c2ncccc2n1 [27/123] | > 7.00 | 6.00 to 7.00 | > 7.00 | –
COc1cnc2cccnc2c1C(=O)N(Cc1ccc(C(F)(F)F)o1)Cc1ccc(-c2cccc(C(C)(C)C(=O)O)c2)cc1Cl [27/124] | > 7.00 | > 7.00 | > 7.00 | –
Cc1ccc2nc(C)cc(C(=O)N(Cc3ccc(-c4cccc(C(C)(C)C(=O)O)c4)cc3)Cc3ccc(C(F)(F)F)o3)c2c1 [27/125] | > 7.00 | 6.00 to 7.00 | > 7.00 | –
Cc1nc2cccnc2c(C(=O)N(Cc2ccc(-c3cccc(C(C)(C)C(=O)O)c3)cc2)Cc2ccc(C(F)F)o2)c1C [27/126] | 6.00 to 7.00 | 6.00 to 7.00 | > 7.00 | –
Cc1cc(C(=O)N(Cc2ccc(-c3cccc(C(C)(C)C(=O)O)c3)cc2)Cc2ccc(C(F)(F)F)o2)c2ccc(F)cc2n1 [27/127] | 6.00 to 7.00 | 5.00 to 6.00 | 6.00 to 7.00 | –
CC(C)(C(=O)O)c1cccc(-c2ccc(CN(Cc3ccc(C(F)(F)F)o3)C(=O)c3cc(C4CC4)nc4ccccc34)cc2)c1 [27/129] | > 7.00 | 6.00 to 7.00 | 6.00 to 7.00 | –
Cc1nc2cccnc2c(C(=O)N(Cc2ccc(-c3cccc(C(C)(C)C(=O)O)c3)cc2)Cc2nc(C(F)(F)F)cs2)c1C [27/130] | > 7.00 | 6.00 to 7.00 | > 7.00 | –
Cc1nc2cccnc2c(C(=O)N(Cc2ccc(-c3cccc(C(C)(C)C(=O)O)c3)cc2)Cc2cncc(C(F)(F)F)c2)c1C [27/131] | 6.00 to 7.00 | 6.00 to 7.00 | 6.00 to 7.00 | –
Cc1ccc(CN(Cc2ccc(-c3cccc(C(C)(C)C(=O)O)c3)cc2)C(=O)c2c(C)c(C)nc3cccnc23)o1 [27/132] | > 7.00 | 5.00 to 6.00 | 6.00 to 7.00 | –
Cc1nc2cccnc2c(CN(Cc2ccc(-c3cccc(C(C)(C)C(=O)O)c3)cc2)Cc2ccc(C(F)(F)F)o2)c1C [27/133] | > 7.00 | – | > 7.00 | C*
Cc1nc2cnccc2c(C(=O)N(Cc2ccc(-c3cccc(C(C)(C)C(=O)O)c3)cc2)Cc2ccc(C(F)(F)F)o2)c1C [27/135] | > 7.00 | 6.00 to 7.00 | > 7.00 | –
